Measured values published in PubChem BioAssay AID1963852 (Molecular Pharmacology Branch, DTP, NCI, 2024).

Tested on: 282377-053-R-J1-PDC complex spheroid viability
Experiment: Anticancer human tumor 282377-053-R-J1-PDC patient-derived colon adenocarcinoma cell line growth inhibition [POLQ]
Details: for IC50: curve of first compound; for viability, T/C: stronger effect = lower value
Outline: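 Three-cell-type spheroids modelling solid tumor plus stroma served as the readout system; POL inhibitors were tested individually and in combination, concentration ranges set by clinical Cmax where known.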

[1] = second compound 0.0316 µM, first compound 0.0316 µM
[2] = second compound 0.0316 µM, first compound 0.1 µM
[3] = second compound 0.0316 µM, first compound 0.316 µM
[4] = second compound 0.0316 µM, first compound 1 µM
[5] = second compound 0.0316 µM, first compound 3.16 µM
[6] = second compound 0.0316 µM, first compound 10 µM
[7] = second compound 0.1 µM, first compound 0.0316 µM
[8] = second compound 0.1 µM, first compound 0.1 µM
[9] = second compound 0.1 µM, first compound 0.316 µM
[10] = second compound 0.1 µM, first compound 1 µM
[11] = second compound 0.1 µM, first compound 3.16 µM
[12] = second compound 0.1 µM, first compound 10 µM
[13] = second compound 0.316 µM, first compound 0.0316 µM
[14] = second compound 0.316 µM, first compound 0.1 µM
[15] = second compound 0.316 µM, first compound 0.316 µM
[16] = second compound 0.316 µM, first compound 1 µM
[17] = second compound 0.316 µM, first compound 3.16 µM
[18] = second compound 0.316 µM, first compound 10 µM
[19] = second compound 1 µM, first compound 0.0316 µM
[20] = second compound 1 µM, first compound 0.1 µM
[21] = second compound 1 µM, first compound 0.316 µM
[22] = second compound 1 µM, first compound 1 µM
[23] = second compound 1 µM, first compound 3.16 µM
[24] = second compound 1 µM, first compound 10 µM
[25] = second compound 3.16 µM, first compound 0.0316 µM
[26] = second compound 3.16 µM, first compound 0.1 µM
[27] = second compound 3.16 µM, first compound 0.316 µM
[28] = second compound 3.16 µM, first compound 1 µM
[29] = second compound 3.16 µM, first compound 3.16 µM
[30] = second compound 3.16 µM, first compound 10 µM
[31] = second compound 10 µM, first compound 0.0316 µM
[32] = second compound 10 µM, first compound 0.1 µM
[33] = second compound 10 µM, first compound 0.316 µM
[34] = second compound 10 µM, first compound 1 µM
[35] = second compound 10 µM, first compound 3.16 µM
[36] = second compound 10 µM, first compound 10 µM
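Note: spheroids exposed to compounds for seven days.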
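Throughout, for viability, T/C: 100% = DMSO vehicle control viability.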

CCc1cc2c(N3CCc4c(cc(Cn5ccnc5)cc4-c4cn(C)nc4C(F)(F)F)C3=O)cc(C)nc2c(OC)n1 + Cc1cccc(N(C)C(=O)C2C(O)CCN2c2nc(C)cc(C(F)(F)F)c2C#N)c1
IC50 (second compound 0.0316 µM): > 10000 nM
IC50 (second compound 0.1 µM): > 10000 nM
IC50 (second compound 0.316 µM): > 10000 nM
IC50 (second compound 1 µM): > 10000 nM
IC50 (second compound 3.16 µM): > 10000 nM
IC50 (second compound 10 µM): > 10000 nM
viability, T/C [1]: 104%
viability, T/C [2]: 99.8%
viability, T/C [3]: 89.7%
viability, T/C [4]: 103%
viability, T/C [5]: 108%
viability, T/C [6]: 134%
viability, T/C [7]: 85.9%
viability, T/C [8]: 102%
viability, T/C [9]: 91.2%
viability, T/C [10]: 91.2%
viability, T/C [11]: 112%
viability, T/C [12]: 117%
viability, T/C [13]: 90.3%
viability, T/C [14]: 99.8%
viability, T/C [15]: 111%
viability, T/C [16]: 110%
viability, T/C [17]: 104%
viability, T/C [18]: 108%
viability, T/C [19]: 111%
viability, T/C [20]: 102%
viability, T/C [21]: 114%
viability, T/C [22]: 89.9%
viability, T/C [23]: 108%
viability, T/C [24]: 107%
viability, T/C [25]: 110%
viability, T/C [26]: 99.5%
viability, T/C [27]: 101%
viability, T/C [28]: 93.8%
viability, T/C [29]: 122%
viability, T/C [30]: 115%
viability, T/C [31]: 96.8%
viability, T/C [32]: 98.3%
viability, T/C [33]: 97%
viability, T/C [34]: 96.8%
viability, T/C [35]: 104%
viability, T/C [36]: 126%

COc1cccc2c1C(=O)c1c(O)c3c(c(O)c1C2=O)CC(O)(C(=O)CO)CC3OC1CC(N)C(O)C(C)O1 (centres undefined) + COC1C(OC(N)=O)C(O)C(Oc2ccc3c(O)c(NC(=O)c4ccc(O)c(CC=C(C)C)c4)c(=O)oc3c2C)OC1(C)C
IC50 (second compound 0.0316 µM): 273 nM
IC50 (second compound 0.1 µM): 323 nM
IC50 (second compound 0.316 µM): 284 nM
IC50 (second compound 1 µM): 386 nM
IC50 (second compound 3.16 µM): 289 nM
IC50 (second compound 10 µM): 378 nM
viability, T/C [1]: 92.3%
viability, T/C [2]: 81%
viability, T/C [3]: 43.9%
viability, T/C [4]: 17.5%
viability, T/C [5]: 1.11%
viability, T/C [6]: 2.81%
viability, T/C [7]: 117%
viability, T/C [8]: 82.7%
viability, T/C [9]: 57.6%
viability, T/C [10]: 16.5%
viability, T/C [11]: 0.71%
viability, T/C [12]: 2.97%
viability, T/C [13]: 95.5%
viability, T/C [14]: 84.9%
viability, T/C [15]: 44.9%
viability, T/C [16]: 16.1%
viability, T/C [17]: 0.67%
viability, T/C [18]: 2.69%
viability, T/C [19]: 97.1%
viability, T/C [20]: 88.6%
viability, T/C [21]: 58%
viability, T/C [22]: 14.3%
viability, T/C [23]: 1.36%
viability, T/C [24]: 2.91%
viability, T/C [25]: 90.2%
viability, T/C [26]: 88.9%
viability, T/C [27]: 44.8%
viability, T/C [28]: 13.7%
viability, T/C [29]: 0.83%
viability, T/C [30]: 2.03%
viability, T/C [31]: 84.4%
viability, T/C [32]: 76.8%
viability, T/C [33]: 56.8%
viability, T/C [34]: 16.3%
viability, T/C [35]: 2.09%
viability, T/C [36]: 3.61%
